Assay results as given in patent publication US9126948B2, “Pyrimidine-4,6-diamine derivatives as PI3K inhibitors” (Incyte Holdings Corporation, priority 2011, dated 2015).
Counter-ions that a name gives are not always drawn.

How the values were obtained:
[1] = test system: Pfeiffer cell line (diffuse large B cell lymphoma); assay: Pfeiffer Cell Proliferation Assay; assay type: cell-based; conditions: Homo sapiens, [3H]-thymidine incorporation after 3-4 days
Experimental: Pfeiffer cell line (diffuse large B cell lymphoma) was purchased from ATCC (Manassas, Va.) and maintained in the culture medium recommended (RPMI and 10% FBS). To measure the anti-proliferation activity of the compounds, the Pfeiffer cells were plated with the culture medium (2×10^3 cells/well/[…]) into 96-well ultra-low binding plates (Corning, Corning, N.Y.), in the presence or absence of a concentration range of test compounds. After 3-4 days, [^3H]-thymidine (1 μCi/well) (PerkinElmer, Boston, Mass.) in PBS was then added to the cell culture for an additional 12 hours before the incorporated radioactivity was separated by filtration with water through GF/B filters (Packard Bioscience, Meridenj, Conn.) and measured by liquid scintillation counting with a TopCount (Packard Bioscience). Pfeiffer cell proliferation data for certain compounds described herein is provided below in Table 8.

[2] = biological target: PI3Kδ (p110δ/p85α) (Homo sapiens (Human), UniProt O00329); assay: PI3Kδ Scintillation Proximity Assay; assay type: biochemical; conditions: 20 μM PIP2, 20 μM ATP, 4 nM PI3Kδ, 210 min; read-out: PI3Kδ SPA IC50
From the text: [γ-^33P]ATP (10 mCi/mL) was purchased from Perkin-Elmer (Waltham, Mass.). Lipid kinase substrate, D-myo-Phosphatidylinositol 4,5-bisphosphate (PtdIns(4,5)P2)D(+)-sn-1,2-di-O-octanoylglyceryl, 3-O-phospho linked (PIP2), CAS 204858-53-7, was purchased from Echelon Biosciences (Salt Lake City, Utah). PI3Kδ (p110δ/p85α) was purchased from Millipore (Bedford, Mass.). ATP, MgCl2, DTT, EDTA, MOPS and CHAPS were purchased from Sigma-Aldrich (St. Louis, Mo.). Wheat Germ Agglutinin (WGA) YSi SPA Scintillation Beads was purchased from GE healthcare life sciences (Piscataway, N.J.).
The kinase reaction was conducted in polystyrene 384-well matrix white plate from Thermo Fisher Scientific in a final volume of 25 μL. Inhibitors were first diluted serially in DMSO and added to the plate wells before the addition of other reaction components. The final concentration of DMSO in the assay was 0.5%. The PI3K assays were carried out at room temperature in 20 mM MOPS, pH 6.7, 10 mM MgCl2, 5 mM DTT and CHAPS 0.03%. Reactions were initiated by the addition of ATP, the final reaction mixture consisted of 20 μM PIP2, 20 μM ATP, 0.2 μCi [γ-^33P]ATP, 4 nM PI3Kδ. Reactions were incubated for 210 min and terminated by the addition of 40 μL SPA beads suspended in quench buffer: 150 mM potassium phosphate pH 8.0, 20% glycerol. 25 mM EDTA, 400 μM ATP. The final concentration of SPA beads was 1.0 mg/mL. After the plate sealing, plates were shaken overnight at room temperature and centrifuged at 1800 rpm for 10 minutes, the radioactivity of the product was determined by scintillation counting on Topcount (Perkin-Elmer). IC50 determination was performed by fitting the curve of percent control activity versus the log of the inhibitor concentration using the GraphPad Prism 3.0 software.

Sequence of PI3Kδ (p110δ/p85α) (O00329 whole entry, species assumed): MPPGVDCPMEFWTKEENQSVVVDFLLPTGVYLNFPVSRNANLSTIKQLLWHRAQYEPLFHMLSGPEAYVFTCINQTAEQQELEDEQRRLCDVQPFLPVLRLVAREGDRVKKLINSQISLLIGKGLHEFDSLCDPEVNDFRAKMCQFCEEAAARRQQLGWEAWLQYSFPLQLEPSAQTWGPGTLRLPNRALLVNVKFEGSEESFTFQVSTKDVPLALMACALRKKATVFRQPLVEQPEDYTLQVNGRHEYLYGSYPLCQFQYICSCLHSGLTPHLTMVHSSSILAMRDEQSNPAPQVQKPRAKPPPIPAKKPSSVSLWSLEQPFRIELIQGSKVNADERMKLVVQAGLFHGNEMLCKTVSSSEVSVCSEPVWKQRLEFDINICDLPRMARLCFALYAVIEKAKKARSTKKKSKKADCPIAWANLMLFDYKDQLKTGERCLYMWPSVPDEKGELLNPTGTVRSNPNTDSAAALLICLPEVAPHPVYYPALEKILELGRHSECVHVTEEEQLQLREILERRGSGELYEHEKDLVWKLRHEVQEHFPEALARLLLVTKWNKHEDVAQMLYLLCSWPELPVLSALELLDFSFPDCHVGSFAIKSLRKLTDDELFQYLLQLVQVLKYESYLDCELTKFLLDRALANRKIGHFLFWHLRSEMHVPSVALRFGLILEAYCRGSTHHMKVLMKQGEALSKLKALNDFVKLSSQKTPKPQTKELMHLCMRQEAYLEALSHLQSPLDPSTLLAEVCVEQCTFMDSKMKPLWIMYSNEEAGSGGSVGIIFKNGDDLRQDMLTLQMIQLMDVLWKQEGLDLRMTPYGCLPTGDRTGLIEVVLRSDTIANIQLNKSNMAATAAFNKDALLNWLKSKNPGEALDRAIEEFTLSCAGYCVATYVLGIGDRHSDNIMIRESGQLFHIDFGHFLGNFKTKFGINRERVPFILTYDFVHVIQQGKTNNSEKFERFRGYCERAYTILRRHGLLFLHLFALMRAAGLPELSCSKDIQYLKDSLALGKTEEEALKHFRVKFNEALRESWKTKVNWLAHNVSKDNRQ
Sequence of PI3Kδ (p110δ/p85α) (P27986 whole entry partner, species assumed): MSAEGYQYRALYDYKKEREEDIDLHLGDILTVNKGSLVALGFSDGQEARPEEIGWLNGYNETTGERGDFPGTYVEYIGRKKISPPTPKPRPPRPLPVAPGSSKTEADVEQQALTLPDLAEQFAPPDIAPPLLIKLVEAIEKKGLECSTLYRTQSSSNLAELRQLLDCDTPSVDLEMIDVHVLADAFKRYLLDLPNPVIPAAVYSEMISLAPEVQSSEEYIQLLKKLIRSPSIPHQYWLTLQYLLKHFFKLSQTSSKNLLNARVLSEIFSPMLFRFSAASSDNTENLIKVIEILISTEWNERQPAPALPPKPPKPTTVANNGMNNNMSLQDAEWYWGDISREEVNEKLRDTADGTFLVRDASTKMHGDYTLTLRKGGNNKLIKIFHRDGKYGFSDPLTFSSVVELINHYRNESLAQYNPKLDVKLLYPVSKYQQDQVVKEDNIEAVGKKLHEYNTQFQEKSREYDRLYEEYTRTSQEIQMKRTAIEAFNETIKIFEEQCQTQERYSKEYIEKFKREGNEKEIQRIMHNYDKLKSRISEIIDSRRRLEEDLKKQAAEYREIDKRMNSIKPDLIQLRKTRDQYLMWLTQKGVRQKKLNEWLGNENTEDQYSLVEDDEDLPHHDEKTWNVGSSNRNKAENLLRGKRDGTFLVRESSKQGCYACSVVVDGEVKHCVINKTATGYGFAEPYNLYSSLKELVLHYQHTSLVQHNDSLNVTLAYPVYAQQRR

SMILES	IC50 [1] [nM]	IC50 [2] [nM]
COc1c(C(C)Nc2ncnc(N)c2C#N)cc(Cl)c(C)c1-c1cncc(S(C)(=O)=O)c1 (stereo not shown) [Example 1, 4-Amino-6-[(1-{5-chloro-2-methoxy-4-methyl-3-[5-(methylsulfonyl)pyridin-3-yl]phenyl}ethyl)amino]pyrimidine-5-carbonitrile trifluoroacetic acid salt]	< 20	
COc1c(C(C)Nc2ncnc(N)c2C#N)cc(Cl)c(C)c1-c1cncc(C#N)c1 (stereo not shown) [Example 2, 4-amino-6-({1-[5-chloro-3-(5-cyano-pyridin-3-yl)-2-methoxy-4-methylphenyl]ethyl}amino)-pyrimidine-5-carbonitrile]	< 20	< 20
COc1c(C(C)Nc2ncnc(N)c2C#N)cc(Cl)c(C)c1-c1cnc(N)nc1 (stereo not shown) [Example 3, 4-amino-6-({1-[3-(2-aminopyrimidin-5-yl)-5-chloro-2-methoxy-4-methyl-phenyl]ethyl}-amino)pyrimidine-5-carbonitrile]	< 20	< 20
COc1c(C(C)Nc2ncnc(N)c2C#N)cc(Cl)c(C)c1-c1ccc(S(C)(=O)=O)cc1 (stereo not shown) [Example 4, 4-amino-6-({1-[5-chloro-2-methoxy-6-methyl-4′-(methyl-sulfonyl)biphenyl-3-yl]ethyl}amino) pyrimidine-5-carbonitrile]	< 20	< 20
COc1c(C(C)Nc2ncnc(N)c2C#N)cc(Cl)c(C)c1-c1cncc(C(=O)N2CCOCC2)c1 (stereo not shown) [Example 5, 4-amino-6-[(1-{5-chloro-2-methoxy-4-methyl-3-[5-(morpholin-4-ylcarbonyl)pyridin-3-yl]phenyl}ethyl)-amino]pyrimidine-5-carbonitrile]	< 20	< 20
COc1c(C(C)Nc2ncnc(N)c2C#N)cc(Cl)c(F)c1-c1cncc(C#N)c1 (stereo not shown) [Example 6, 4-Amino-6-({1-[5-chloro-3-(5-cyanopyridin-3-yl)-4-fluoro-2-methoxyphenyl]ethyl}-amino)pyrimidine-5-carbonitrile]	< 20	< 20
COc1c(C(C)Nc2ncnc(N)c2C#N)cc(Cl)c(F)c1-c1cncc(F)c1 (stereo not shown) [Example 7, 4-amino-6-({1-[5-chloro-4-fluoro-3-(5-fluoropyridin-3-yl)-2-methoxyphenyl]ethyl}-amino) pyrimidine-5-carbonitrile]	< 20	< 20
COc1c(C(C)Nc2ncnc(N)c2C#N)cc(Cl)c(F)c1-c1cncc(S(C)(=O)=O)c1 (stereo not shown) [Example 8, 4-amino-6-[(1-{5-chloro-4-fluoro-2-methoxy-3-[5-(methyl-sulfonyl)pyridin-3-yl]phenyl}ethyl)amino]-pyrimidine-5-carbonitrile bis(trifluoroacetate)]	< 20	< 20
COc1c(C(C)Nc2ncnc(N)c2C#N)cc(Cl)c(F)c1-c1ccc(S(C)(=O)=O)cc1 (stereo not shown) [Example 9, 4-amino-6-({1-[5-chloro-6-fluoro-2-methoxy-4′-(methylsulfonyl)biphenyl-3-yl]ethyl}amino) pyrimidine-5-carbonitrile]		< 20
COc1c(C(C)Nc2ncnc(N)c2C#N)cc(Cl)c(F)c1-c1cnc(N)nc1 (stereo not shown) [Example 10, 4-amino-6-({1-[3-(2-aminopyrimidin-5-yl)-5-chloro-4-fluoro-2-methoxyphenyl]-ethyl}amino)pyrimidine-5-carbonitrile]	< 20	< 20
COc1c(C(C)Nc2ncnc(N)c2C#N)cc(Cl)c(Cl)c1-c1cncc(S(C)(=O)=O)c1 (stereo not shown) [Example 11, 4-Amino-6-[(1-{4,5-dichloro-2-methoxy-3-[5-(methylsulfonyl)pyridin-3-yl]phenyl}ethyl)amino]pyrimidine-5-carbonitrile]	< 20	< 20
COc1c(C(C)Nc2ncnc(N)c2C#N)cc(Cl)c(Cl)c1-c1cncc(F)c1 (stereo not shown) [Example 12, 4-Amino-6-({1-[4,5-dichloro-3-(5-fluoropyridin-3-yl)-2-methoxyphenyl]ethyl}amino) pyrimidine-5-carbonitrile]	< 20	< 20
COc1c(C(C)Nc2ncnc(N)c2C#N)cc(Cl)c(Cl)c1-c1ccc(S(C)(=O)=O)cc1 (stereo not shown) [Example 13, 4-Amino-6-({1-[5,6-dichloro-2-methoxy-4′-(methylsulfonyl)biphenyl-3-yl]ethyl}amino) pyrimidine-5-carbonitrile]		< 20
COc1c(C(C)Nc2ncnc(N)c2C#N)cc(Cl)c(Cl)c1-c1cnc(N)nc1 (stereo not shown) [Example 14, 4-Amino-6-({1-[3-(2-aminopyrimidin-5-yl)-4,5-dichloro-2-methoxy-phenyl]ethyl}amino)pyrimidine-5-carbonitrile]	< 20	< 20
